This experiment addresses T1, Axl (Homo sapiens, UniProt P30530).
T1 construct: Cells: Hela cells; endogenous in cells; host or cells: HeLa cells
T1 sequence (P30530 26-894): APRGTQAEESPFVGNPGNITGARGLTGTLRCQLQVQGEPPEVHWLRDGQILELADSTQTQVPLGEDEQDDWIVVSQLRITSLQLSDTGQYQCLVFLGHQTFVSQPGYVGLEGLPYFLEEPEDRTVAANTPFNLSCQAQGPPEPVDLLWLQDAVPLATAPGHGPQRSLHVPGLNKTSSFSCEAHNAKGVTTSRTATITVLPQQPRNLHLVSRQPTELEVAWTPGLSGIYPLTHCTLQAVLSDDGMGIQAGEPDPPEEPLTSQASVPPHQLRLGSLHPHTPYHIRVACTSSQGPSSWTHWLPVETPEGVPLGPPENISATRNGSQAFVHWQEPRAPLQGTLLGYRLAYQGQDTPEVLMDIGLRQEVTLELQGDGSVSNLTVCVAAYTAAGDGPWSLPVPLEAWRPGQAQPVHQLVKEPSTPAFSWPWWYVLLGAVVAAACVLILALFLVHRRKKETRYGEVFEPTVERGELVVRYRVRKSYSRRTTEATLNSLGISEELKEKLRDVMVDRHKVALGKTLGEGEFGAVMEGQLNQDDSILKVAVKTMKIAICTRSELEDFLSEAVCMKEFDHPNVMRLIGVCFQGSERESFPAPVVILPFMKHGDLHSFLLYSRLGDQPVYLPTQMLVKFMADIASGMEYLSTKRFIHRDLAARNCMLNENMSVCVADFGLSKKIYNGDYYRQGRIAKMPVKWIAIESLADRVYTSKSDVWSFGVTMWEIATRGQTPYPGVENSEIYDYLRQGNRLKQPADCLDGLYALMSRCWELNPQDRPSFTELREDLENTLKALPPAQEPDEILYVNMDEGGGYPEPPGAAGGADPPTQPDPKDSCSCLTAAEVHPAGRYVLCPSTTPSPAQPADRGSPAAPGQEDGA
Put plainly: Phospho-Akt in-cell Western assay (inhibition of Axl activity). The class given is cell-based. Conditions: Hela cells; 1 hr pre-treatment; stimulation by Axl-antibody cross-linking; phospho-Akt chemiluminescence normalized to relative cell number. Here is the method:
The compounds of the invention were tested in the following assay for their ability to inhibit Axl activity.
Phospho-Akt in-Cell Western Assay
• Cell culture plate: 96 well assay plate (Corning 3610), white, clear bottom, tissue-culture treated. • Cells: Hela cells. • Starvation medium: For Axl stimulation: 0.5% FCS (fetal calf serum) in DMEM, plus Axl/Fc (extracellular domain of AXL fused to immunoglobulin Fc region) (R&D, 154-AL) 500 ng/mL. • For EGF (epidermal growth factor) stimulation: 0.5% FCS in DMEM (Dulbecco's modified Eagles medium). • Poly-L-Lysine 0.01% solution (the working solution): […], dilute In PBS (phosphate buffered saline). • Axl antibody cross-linking: • 1st: Mouse anti-Axl (R&D, MAB154). • 2nd: Biotin-SP-conjugated AffiniPure goat anti-mouse IgG (H+ L) (Jackson ImmunoResearch #115-065-003). • Fixing buffer: 4% formaldehyde in PBS. • Wash buffer: 0.1% TritonX-100 in PBS. • Quenching buffer: 3% H2O2, 0.1% Azide in wash buffer, Azide and hydrogen peroxide (H2O2) are added fresh. • Blocking buffer: 5% BSA in TBST (tris buffered saline plus 0.1% Tween 20). • Primary antibody: Rabbit anti-human Phospho-Akt antibody (Cell Signaling 9271): 1×250 diluted in blocking buffer. • Secondary antibody: HRP (horse radish peroxidase)-conjugated Goat anti-Rabbit secondary, stock solution: Jackson ImmunoResearch (Goat anti-Rabbit HRP, #111-035-144) 1:1 diluted in glycerol, store at −20° C. The working solution: 1×2000 dilution of stock in blocking buffer. • Chemiluminescent working solution (Pierce, 37030): SuperSignal ELISA (enzyme linked immunosorbant assay) Pico Chemiluminescent substrate. • Crystal Violet solution: Stock: 2.5% Crystal violet in methanol, filtered and kept at ambient temperature. The working solution: dilute the stock 1:20 with PBS immediately before use. • 10% SDS: working solution: 5% SDS (sodium dodecylsulfate), diluted in PBS Methods: Day 1:
A 96 well TC (tissue culture treated) plate was coated with 10 μg/mL poly-L-Lysine at 37° C. for 30 min, washed twice with PBS, and air-dried for 5 minutes before cells were added. Hela cells were seeded at 10,000 cells/well and the cells were starved in 100 μL starvation medium containing Axl/Fc for 24 hrs.
The cells were pre-treated with test compounds by adding 100 μL of 2× test compound to the starvation medium on the cells. The cells were incubated at 37° C. for 1 hr before stimulation.
The cells were stimulated by Axl-antibody cross-linking as follows: A 5× 1st/2nd Axl antibody mixture was made (37.5 μg/mL 1st/100 μg/mL 2nd) in starvation medium and nutated at 4° C. with thorough mixing for 1-2 hours for clustering. The resulting mix was warmed to 37° C. 50 μL of 5× Axl 1st/2nd of antibody cluster was added to the cells and the cells were incubated at 37° C. for 5 min.
After 5 minutes stimulation, the plate was flicked to remove medium and the plate was tapped onto paper towels. Formaldehyde (4.0% in PBS, 100 μL) was added to fix the cells and the cells were incubated at ambient temperature for 20 min without shaking.
The cells were washed with a plate washer buffer to remove the formaldehyde solution. The plate was flicked to removed excess wash buffer and tapped onto paper towels. Quenching buffer (100 μL) was added to each well and the cells were incubated at ambient temperature for 20 minutes without shaking.
The cells were washed with a plate washer buffer to remove the quenching buffer. Blocking buffer (100 μL) was added and the cells were incubated at ambient temperature for at least an hour with gentle shaking.
The cells were washed with a plate washer buffer and diluted primary antibody (50 μL) was added to each well (blocking buffer was added to the negative control wells instead). The plates were incubated overnight at 4° C. with gentle shaking.
The wash buffer was removed, diluted secondary antibody (100 μL) was added, and the cells were incubated at ambient temperature for 1 hour with gentle shaking. […]

Each structure is given as a SMILES string.

This passage reports IC50 results from patent publication US8809347B2, “Bicyclic aryl and bicyclic heteroaryl substituted triazoles useful as AXL inhibitors” (Rigel Pharmaceuticals, Inc., priority 2006, dated 2014).

For the compound `CS(=O)(=O)N1CCN(c2ccc(Nc3nc(N)n(-c4ncc5c(n4)CCCCCC5)n3)cc2F)CC1` [Compound 19, N^3-(3-fluoro-4-(4-(methylsulfonyl)piperazin-1-yl)phenyl)-1-(5,6,7,8,9,10-hexahydrocycloocta[d]pyrimidin-2-yl)-1H-1,2,4-triazole-3,5-diamine], the IC50 was 1000 to 10000 nM. For `Nc1nc(Nc2ccc(OCCN3CCCC3)cc2)nn1-c1ncnc2c1CCCCCC2` [Compound 20, 1-(5,6,7,8,9,10-hexahydrocycloocta[d]pyrimidin-4-yl)-N^3-(4-(2-(pyrrolidin-1-yl)ethoxy)phenyl)-1H-1,2,4-triazole-3,5-diamine], the IC50 was under 1000 nM.

Consider `CN1CCN(c2ccc(Nc3nc(N)n(-c4ncnc5c4CCCCCC5)n3)cc2)CC1` [Compound 21, 1-(5,6,7,8,9,10-hexahydrocycloocta[d]pyrimidin-4-yl)-N^3-(4-(4-methylpiperazin-1-yl)phenyl)-1H-1,2,4-triazole-3,5-diamine], for which the IC50 is under 1000 nM. In the case of `Nc1nc(Nc2ccc(OCCN3CCCC3)cc2)nn1-c1ccc2c(n1)CCCCCC2` [Compound 22, 1-(5,6,7,8,9,10-hexahydrocycloocta[b]pyridin-2-yl)-N^3-(4-(2-(pyrrolidin-1-yl)ethoxy)phenyl)-1H-1,2,4-triazole-3,5-diamine], the IC50 was under 1000 nM.

With `CN1CCN(c2ccc(Nc3nc(N)n(-c4ccc5c(n4)CCCCCC5)n3)cc2)CC1` [Compound 23, 1-(5,6,7,8,9,10-hexahydrocycloocta[b]pyridin-2-yl)-N^3-(4-(4-methylpiperazin-1-yl)phenyl)-1H-1,2,4-triazole-3,5-diamine], the IC50 was under 1000 nM. Take `Nc1nc(Nc2ccc(N3CCN(C4CC5CCC4C5)CC3)cc2)nn1-c1ncnc2c1CCCCCC2` (stereo not drawn) [Compound 24, N^3-(4-(4-(bicyclo[2.2.1]heptan-2-yl)piperazin-1-yl)phenyl)-1-(5,6,7,8,9,10-hexahydrocycloocta[d]pyrimidin-4-yl)-1H-1,2,4-triazole-3,5-diamine]: the IC50 is under 1000 nM. Regarding `Nc1nc(Nc2ccc(N3CCC(N4CCOCC4)CC3)c(F)c2)nn1-c1ncc2c(n1)CCCCCC2` [Compound 25, N^3-(3-fluoro-4-(4-morpholinopiperidin-1-yl)phenyl)-1-(5,6,7,8,9,10-hexahydrocycloocta[d]pyrimidin-2-yl)-1H-1,2,4-triazole-3,5-diamine], the IC50 is 1000 to 10000 nM.

As to `Cc1csc2c(-n3nc(Nc4ccc5c(c4)CCCN(C4CCCC4)CC5)nc3N)nc(Cl)nc12` [Compound 26, 1-(2-chloro-7-methylthieno[3,2-d]pyrimidin-4-yl)-N^3-(3-cyclopentyl-1,2,3,4,5,6-hexahydrobenzo[d]azocin-8-yl)-1H-1,2,4-triazole-3,5-diamine], the IC50 is under 1000 nM. With `COc1cc2ncnc(-n3nc(Nc4ccc5c(c4)CCCN(C4CCCC4)CC5)nc3N)c2cc1OC` [Compound 27, N^3-(3-cyclopentyl-1,2,3,4,5,6-hexahydro-benzo[d]azocin-8-yl)-1-(6,7-dimethoxy-quinazolin-4-yl)-1H-[1,2,4]triazole-3,5-diamine] the figure was under 1000 nM; with `Cc1csc2c(-n3nc(Nc4ccc5c(c4)OCCCCO5)nc3N)nc(Cl)nc12` [Compound 28, 1-(2-chloro-7-methylthieno[3,2-d]pyrimidin-4-yl)-N^3-(2,3,4,5-tetrahydrobenzo[b][1,4]dioxocin-8-yl)-1H-1,2,4-triazole-3,5-diamine], under 1000 nM; with `Cc1csc2c(-n3nc(Nc4ccc5c(c4)CC(N4CCCC4)CCCC5)nc3N)nc(Cl)nc12` (stereo not drawn) [Compound 29, 1-(2-chloro-7-methylthieno[3,2-d]pyrimidin-4-yl)-N^3-(9-(pyrrolidin-1-yl)-5,6,7,8,9,10-hexahydrobenzo[8]annulen-2-yl)-1H-1,2,4-triazole-3,5-diamine], under 1000 nM. In the case of `Nc1nc(Nc2ccc3c(c2)CCN(C2CCCC2)CCC3)nn1-c1ccc(C(F)(F)F)cn1` [Compound 30, N^3-(3-cyclopentyl-1,2,3,4,5,6-hexahydrobenzo[d]azocin-9-yl)-1-(5-(trifluoromethyl)pyridin-2-yl)-1H-1,2,4-triazole-3,5-diamine], the IC50 was under 1000 nM. With `Nc1nc(Nc2ccc3c(c2)CCCN(C2CCCC2)CC3)nn1-c1ncnc2ccc(F)cc12` [Compound 31, N^3-(3-cyclopentyl-1,2,3,4,5,6-hexahydrobenzo[d]azocin-8-yl)-1-(6-fluoroquinazolin-4-yl)-1H-1,2,4-triazole-3,5-diamine] the figure was under 1000 nM. As to `Nc1nc(Nc2ccc3c(c2)CCCN(C2CCCC2)CC3)nn1-c1nc2ccccc2s1` [Compound 32, 1-(benzo[d]thiazol-2-yl)-N^3-(3-cyclopentyl-1,2,3,4,5,6-hexahydrobenzo[d]azocin-8-yl)-1H-1,2,4-triazole-3,5-diamine], the IC50 lay within 1000 to 10000 nM. With `Nc1nc(Nc2ccc3c(c2)CCN(C2CCCC2)CCC3)nn1-c1nc2ccccc2s1` [Compound 33, 1-(benzo[d]thiazol-2-yl)-N^3-(3-cyclopentyl-1,2,3,4,5,6-hexahydrobenzo[d]azocin-9-yl)-1H-1,2,4-triazole-3,5-diamine], the IC50 was under 1000 nM. With `Cc1csc2c(-n3nc(Nc4cnc5c(c4)CCC(=O)CCC5)nc3N)nc(Cl)nc12` [Compound 34, 1-(2-chloro-7-methylthieno[3,2-d]pyrimidin-4-yl)-N^3-(7-oxo-5,6,8,9,10-pentahydrocycloocta[b]pyridin-3-yl)-1H-1,2,4-triazole-3,5-diamine] the figure was under 1000 nM; with `Nc1nc(Nc2ccc(N3CCC(N4CCCC4)CC3)c(F)c2)nn1-c1ncnc2c1CCCCCC2` [Compound 35, N^3-(3-fluoro-4-(4-(pyrrolidin-1-yl)piperidin-1-yl)phenyl)-1-(5,6,7,8,9,10-hexahydrocycloocta[d]pyrimidin-4-yl)-1H-1,2,4-triazole-3,5-diamine], under 1000 nM. With `Nc1nc(Nc2ccc(N3CC(N4CCCC4)C3)c(F)c2)nn1-c1ncnc2c1CCCCCC2` [Compound 36, N^3-(3-fluoro-4-(3-(pyrrolidin-1-yl)azetidin-1-yl)phenyl)-1-(5,6,7,8,9,10-hexahydrocycloocta[d]pyrimidin-4-yl)-1H-1,2,4-triazole-3,5-diamine] the figure was under 1000 nM.

The term IC50 denotes the midpoint of a concentration-inhibition curve.
